Results on six molecules are retold here after article PMC10458307, “New Scaffolds of Proteasome Inhibitors: Boosting Anticancer Potential by Exploiting the Synergy of In Silico and In Vitro Methodologies” (Pharmaceuticals, 2023).

The nature of data set [1]: Cell viability, MTT assay, K562. To be noted: human, K562 leukemia cells, read-out: percentage of cell viability, MTT, K562; for viability at 72 h, 10 µM: at 10 µM; for viability at 72 h, 100 µM: at 100 µM. Format: cell-based, human. The procedure:
(§1) Whenever possible, additional concentrations were tested and IC50 values were determined.
(§2) Human leukemia Jurkat E6.1 T-cell line and K562-cell line were originally obtained from ATCC Collections (Manassas, VA, USA); human HT-29 and HCT116 colorectal carcinoma-cell lines were obtained from ECACC (Porton Down, Porton, UK). Cells were passaged for less than 6 months after and routinely tested for mycoplasma contamination using Mycoalert detection kit (Lonza, Basel, Switzerland). Jurkat, K562, and HT-29 cells were maintained in Roswell Park Memorial Institute (RPMI) 1640 with GlutaMAX™, supplemented with 1% antibiotic mixture (100 µg/mL streptomycin and 100 U/mL penicillin) and 10% heat-inactivated foetal bovine serum (FBS) (all from Gibco, Thermo Fisher Scientific, Paisley, UK). HCT116 cells were maintained in Dulbecco’s Modified Eagle Medium (DMEM) with GlutaMAX™, supplemented with 1% antibiotic mixture (100 µg/mL streptomycin and 100 U/mL penicillin) and 10% heat-inactivated FBS (all from Gibco, Thermo Fisher Scientific, Paisley, UK). Incubation was performed at 37 °C in a 5% CO2 atmosphere. Cells were routinely passaged every 2 or 3 days at 70–90% confluence; TrypLE Express (Gibco, Thermo Fisher Scientific, Paisley, UK) was used as dissociation agent for adherent cells. Trypan blue (Gibco, Thermo Fisher Scientific, Paisley, UK) was used to assess cell viability using the dye exclusion test.
(§3) To assess cell viability, the MTT assay was performed. Jurkat/K562/HT-29/HCT116 cell lines were seeded in triplicate (10,000 cells/well) in 96-well plates with 50 µL of complete medium and incubated at 37 °C, 5% CO2 for 24 h to allow the cells to adhere to the plate (in the case of adherent cells). […] Untreated cells seeded in triplicate were used as control. The blank was performed in triplicate with 100 µL of culture medium. The cells were incubated with the compounds, in triplicate, in 100 µL of total volume, at 37 °C, 5% CO2 for 72 h. […] In suspension cells (Jurkat), 25 µL of MTT were directly added to each well and, after 3 h 30 m of incubation, 100 µL of DMSO were added to solubilize the formazan crystals; in adherent cells (HT-29 and HCT116), the culture medium was removed, 25 µL of MTT were added to each well and, after 3 h 30 m of incubation, upon MTT removal, 100 µL of DMSO were added to solubilize the formazan crystals. After 15 min, the samples absorbance was measured at 570 nm and the percentage of cell viability was determined.
For orientation: Tetrazolium assays rely on reduction of a dye to a coloured formazan, in cell work by metabolically active cells.

For data set [2], the target named is T1, 20S proteasome in Jurkat cell lysates, C-L activity (Homo sapiens, UniProt P28072).
T1 sequence (P28072 35-239 limits assumed): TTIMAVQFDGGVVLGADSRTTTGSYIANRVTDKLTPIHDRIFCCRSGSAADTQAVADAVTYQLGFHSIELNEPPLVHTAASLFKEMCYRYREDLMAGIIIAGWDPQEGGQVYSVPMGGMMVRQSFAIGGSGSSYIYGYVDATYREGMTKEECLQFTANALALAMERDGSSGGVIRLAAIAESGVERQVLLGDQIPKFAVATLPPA
T1 sequence (Q99436 44-277 partner): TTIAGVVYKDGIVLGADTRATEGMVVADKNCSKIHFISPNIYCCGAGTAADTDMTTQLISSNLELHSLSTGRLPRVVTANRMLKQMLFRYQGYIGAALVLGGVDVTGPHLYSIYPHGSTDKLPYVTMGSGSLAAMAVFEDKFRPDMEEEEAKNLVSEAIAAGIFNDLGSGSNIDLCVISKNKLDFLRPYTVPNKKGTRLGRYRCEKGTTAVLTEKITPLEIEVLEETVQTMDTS
The data set can be described thus: Proteasome inhibition assay in cell lysates, Jurkat, C-L. The following applies: for inhibition at 10 µM: read-out: percentage of proteasome inhibition, C-L, cell lysates Jurkat, at 10 µM; for inhibition at 100 µM: read-out: percentage of proteasome inhibition, C-L, cell lysates Jurkat, at 100 µM.
Method: Cells were obtained from several cultured cell lines: Jurkat, K562, HT-29, and HCT116. Pellets with 20 × 10^6 cells were prepared and washed with cold sterile phosphate buffered saline (PBS), 1×, pH 7.4 (Gibco, Thermo Fisher Scientific, Paisley, UK). […] Cells were resuspended in buffer containing 50 mM TRIS-HCl pH 7.4 (Nzytech, Lisboa, Portugal), 5 mM MgCl2 (≥98% purity, Merck, Hamburg, Germany), 1 mM DTT (Merck, Hamburg, Germany), 2 mM ATP (≥98% purity, Enzo Life Sciences Inc., Farmingdale, NY, USA), and 250 mM saccharose (Merck, Hamburg, Germany). Glass beads (Merck, Hamburg, Germany) equivalent to the volume of the cell suspension were added, and the mixture was vortexed for 2 min at 4 °C. Beads and cell debris were removed using 5 min centrifugation at 1000× g and 4 °C, followed by 20 min of centrifugation at 10,000× g at 4 °C. Cell lysates containing proteasomes were resuspended in “activity buffer” [50 mM TRIS-HCl (pH 7.4), 5 mM MgCl2, 1 mM DTT, 2 mM ATP (≥98% purity, Enzo Life Sciences Inc., Farmingdale, NY, USA), and 500 µM EDTA (≥98% purity, Merck, Hamburg, Germany)]. Protein concentration was determined using the Pierce™ BCA protocol (Thermo Fisher Scientific, Rockford, IL, USA). […] DMSO was added in an equal volume as used for the untreated compounds as a way to assess/control its influence in the assay. Untreated cells were used as control. In each well of a 96-well plate, 25 µL of lysate were seeded in duplicate with 25 µL of the compound to test; in the control, 25 µL of activity buffer were added to the 25 µL of lysate. A blank (50 µL of activity buffer) was added to the wells in quadruplicate. Cell lysates, pre-treated or not with different concentrations of the test compounds, were incubated for 30 min at 37 °C. […] Stock solutions (10 mM) of each substrate were prepared in DMSO, diluted in activity buffer, and 50 µL were added to all wells (final concentration of each substrate = 100 µM), followed by an incubation at 37 °C for 60 min. Samples fluorescence was measured at an excitation wavelength of 360 nm and emission of 465 nm; the fluorescence measures were performed using the GloMax-Multi + Detection System (Promega Corp., Madison, WI, USA). Activity was evaluated in fluorescence units, after being converted to percentage of proteasome inhibition and, whenever possible, expressed as IC50 by plotting the inhibition data of each compound at different concentrations against the log of the concentration of the inhibitor, using the GraphPad Prism software version 7. At least eight different concentrations of the test compounds were used.

A further data set concerns HT-29 cells. The data set can be described thus: Cell viability, MTT assay, HT-29. The class given is cell-based, human. To be noted: 72 h; for IC50: Homo sapiens, HT-29, mean ± SD; for percentage of cell viability, MTT, HT-29: at 100 µM. The procedure: as §1, §2, §3
Data set [3] has as its target T2, 20S proteasome in K562 cell lysates, CT-L activity (Homo sapiens, UniProt P28074).
T2 sequence (P28074 60-263): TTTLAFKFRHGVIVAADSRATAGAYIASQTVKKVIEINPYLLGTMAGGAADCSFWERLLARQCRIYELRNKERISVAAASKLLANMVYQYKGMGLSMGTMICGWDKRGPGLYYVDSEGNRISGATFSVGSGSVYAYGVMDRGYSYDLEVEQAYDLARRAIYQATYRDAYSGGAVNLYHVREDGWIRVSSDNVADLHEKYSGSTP
T2 sequence (P20618 29-241 partner): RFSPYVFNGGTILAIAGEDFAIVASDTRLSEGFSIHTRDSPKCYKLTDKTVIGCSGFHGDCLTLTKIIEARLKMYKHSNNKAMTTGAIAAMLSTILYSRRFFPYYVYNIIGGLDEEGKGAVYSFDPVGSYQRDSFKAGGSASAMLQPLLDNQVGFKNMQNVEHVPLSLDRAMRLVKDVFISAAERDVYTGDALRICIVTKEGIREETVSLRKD
The data set can be described thus: Proteasome inhibition assay in cell lysates, K562, CT-L. To be noted: for inhibition at 10 µM: read-out: percentage of proteasome inhibition, CT-L, cell lysates K562, at 10 µM; for inhibition at 100 µM: read-out: percentage of proteasome inhibition, CT-L, cell lysates K562, at 100 µM.
Method: Cells were obtained from several cultured cell lines: Jurkat, K562, HT-29, and HCT116. Pellets with 20 × 10^6 cells were prepared and washed with cold sterile phosphate buffered saline (PBS), 1×, pH 7.4 (Gibco, Thermo Fisher Scientific, Paisley, UK). The preparation of the lysates from several cell lines was performed based on the methodology described by Gavioli et al. [67]. Cells were resuspended in buffer containing 50 mM TRIS-HCl pH 7.4 (Nzytech, Lisboa, Portugal), 5 mM MgCl2 (≥98% purity, Merck, Hamburg, Germany), 1 mM DTT (Merck, Hamburg, Germany), 2 mM ATP (≥98% purity, Enzo Life Sciences Inc., Farmingdale, NY, USA), and 250 mM saccharose (Merck, Hamburg, Germany). Glass beads (Merck, Hamburg, Germany) equivalent to the volume of the cell suspension were added, and the mixture was vortexed for 2 min at 4 °C. Beads and cell debris were removed using 5 min centrifugation at 1000× g and 4 °C, followed by 20 min of centrifugation at 10,000× g at 4 °C. Cell lysates containing proteasomes were resuspended in “activity buffer” [50 mM TRIS-HCl (pH 7.4), 5 mM MgCl2, 1 mM DTT, 2 mM ATP (≥98% purity, Enzo Life Sciences Inc., Farmingdale, NY, USA), and 500 µM EDTA (≥98% purity, Merck, Hamburg, Germany)]. Protein concentration was determined using the Pierce™ BCA protocol (Thermo Fisher Scientific, Rockford, IL, USA). […] DMSO was added in an equal volume as used for the untreated compounds as a way to assess/control its influence in the assay. Untreated cells were used as control. In each well of a 96-well plate, 25 µL of lysate were seeded in duplicate with 25 µL of the compound to test; in the control, 25 µL of activity buffer were added to the 25 µL of lysate. A blank (50 µL of activity buffer) was added to the wells in quadruplicate. Cell lysates, pre-treated or not with different concentrations of the test compounds, were incubated for 30 min at 37 °C. […] Stock solutions (10 mM) of each substrate were prepared in DMSO, diluted in activity buffer, and 50 µL were added to all wells (final concentration of each substrate = 100 µM), followed by an incubation at 37 °C for 60 min. Samples fluorescence was measured at an excitation wavelength of 360 nm and emission of 465 nm; the fluorescence measures were performed using the GloMax-Multi + Detection System (Promega Corp., Madison, WI, USA). Activity was evaluated in fluorescence units, after being converted to percentage of proteasome inhibition and, whenever possible, expressed as IC50 by plotting the inhibition data of each compound at different concentrations against the log of the concentration of the inhibitor, using the GraphPad Prism software version 7. At least eight different concentrations of the test compounds were used.

[4] abbreviates: at 100 µM, Table 2 legend: bortezomib 10 µM.
Setting [5] is: Table 2 legend: bortezomib 10 µM.

“And” between values parts separate entries of the source, which are not always exact repeats. Identical values can stand only once.

By viability is commonly meant a read-out of living cells in per cent, often relative to untreated cells. As a reminder, the inhibition is the percentage by which the read-out fell short of the control. Broadly, the IC50 is the concentration that inhibits the measured activity by half. Higher therefore signals a need for much substance. `Cc1ccc2ccccc2c1CSc1ncnc2c1ncn2C1OC(CO)C(O)C1O` (stereo not drawn) [Compound 1]: in data set [1], the viability at 72 h, 10 µM is 93.1%. For the same molecule, the viability at 72 h, 100 µM in data set [1] was 18.2%. For the same molecule, the “percentage of proteasome inhibition, C-L, cell lysates Jurkat” value (from here on “percentage of proteasome inhibition, C-L”) in data set [2] (setting [4]) is reported as 19%. For the same molecule, the results for the inhibition at 10 µM in data set [2] and in data set [3] were 2.27% and 0%, respectively. Besides, the figures for the inhibition at 100 µM in data set [2] (setting [5]) and in data set [3] (setting [5]) were 19.4% and 62.7%, respectively. Moreover, in the data set with HT-29 cells, the IC50 was found to be 61.7 µM. In addition, in the data set with HT-29 cells, the “percentage of cell viability, MTT, HT-29” value is 23%. For the same molecule, in data set [3] (setting [4]), the “percentage of proteasome inhibition, CT-L, cell lysates K562” value is reported as 63%.

For the molecule `O=C1c2ccccc2C(=O)c2c(Nc3ccc(S(=O)(=O)N(CCO)CCO)cc3)ccc(O)c21` [Compound 2], the viability at 72 h, 10 µM in data set [1] worked out at 86.3%. The same molecule had an IC50 in data set [2] of 42.4 µM. The “percentage of proteasome inhibition, C-L” value in data set [2] (setting [4]) was found to be 74%. The inhibition at 10 µM in data set [2] came out at 26.9%; in data set [3] it was 13.2%. Besides, the figures for the inhibition at 100 µM in data set [2] (setting [5]) and in data set [3] (setting [5]) were 73.5% and 40.1%, respectively. For the same molecule, in the data set on HT-29 cells, the “percentage of cell viability, MTT, HT-29” value came to 65%. The “percentage of proteasome inhibition, CT-L, cell lysates K562” value in data set [3] (setting [4]) came to 40%.

Regarding `CC(C)c1nc(CN(C)C(=O)N[C@@H](CCN2CCOCC2)C(=O)N[C@H](CC[C@H](Cc2ccccc2)NC(=O)OCc2cncs2)Cc2ccccc2)cs1` [Compound 5, cobicistat, reference compound], the “percentage of proteasome inhibition, C-L” value in data set [2] (setting [4]) is 36%. The inhibition at 10 µM in data set [2] was found to be 0%. Further, the inhibition at 100 µM in data set [2] (setting [5]) stood at 36.2%. Further, in the data set on HT-29 cells, it took 70.5 µM to reach half-maximal inhibition (IC50) and the “percentage of cell viability, MTT, HT-29” value amounted to 25%.

With `Cc1ccc(/C(=N/NS(=O)(=O)c2ccc([N+](=O)[O-])cc2)Sc2cc(Cl)c(C)cc2S(N)(=O)=O)cc1` [Compound 3], the viability at 72 h, 10 µM in data set [1] was found to be 100%. In addition, the viability at 72 h, 100 µM in data set [1] turned out to be 100%. Besides, the “percentage of proteasome inhibition, C-L” value in data set [2] (setting [4]) is given as 25%. The inhibition at 10 µM was determined as 0% in data set [2] and 9.34% in data set [3]. Besides, the inhibition at 100 µM was determined as 25.4% in data set [2] (setting [5]) and 59.1% in data set [3] (setting [5]). Besides, in data set [3] (setting [4]), the “percentage of proteasome inhibition, CT-L, cell lysates K562” value was determined as 59%.

For the molecule `C#CCCN1CCN(c2ccc(-n3c(=O)ccc4cnc5ccc(-c6ccc(N)nc6)cc5c43)cc2C(F)(F)F)CC1` [Compound 4, 9-(6-Aminopyridin-3-yl)-1-(4-(4-(but-3-yn-1-yl)piperazin-1-yl)-3-(trifluoromethyl)phenyl)benzo[h][1,6]naphthyridin-2(1H)-one], in data set [2], the IC50 was 27 µM and the inhibition at 10 µM was 8.16%. Also, the “percentage of proteasome inhibition, C-L” value in data set [2] (setting [4]) is reported as 99%. Moreover, in data set [2] (setting [5]), the inhibition at 100 µM is 98.9%. Besides, in the data set with HT-29 cells, the IC50 came to 43 µM and the “percentage of cell viability, MTT, HT-29” value turned out to be 34%.

As for `CC(C)C[C@H](NC(=O)[C@H](Cc1ccccc1)NC(=O)c1cnccn1)B(O)O` [Bortezomib, bortezomib, reference compound], the viability at 72 h, 10 µM in data set [1] stood at 0%. The viability at 72 h, 100 µM in data set [1] came to 0%. For the same molecule, the “percentage of proteasome inhibition, C-L” value in data set [2] (at 10 µM) is 92.00%; in data set [2] (setting [4]), 94.22% and 94%. Inhibition in the data set on HT-29 cells was half-maximal at 0.00973 µM (IC50). Moreover, the “percentage of proteasome inhibition, CT-L, cell lysates K562” value in data set [3] (at 10 µM) is 95.17%; in data set [3] (setting [4]), 99.60% and 100%.
